Data: patent US20100209513A1, “PHARMACEUTICAL COMPOSITION CONTAINING MICRONIZED PARTICLES OF NAPHTHOQUINONE-BASED COMPOUND” (priority 2007, published 2010)

Legend:
Format in all cases: in vivo
[1] = Body weight change in ob/ob mice, micronized particles of 15,16-dihydrotanshinone (Example 12); conditions: ob/ob male mice; 400 mg/kg plus sodium lauryl sulfate in admixture with the feed for 20 days
Description: In order to confirm therapeutic efficacy of micronized particles of 15,16-dihydrotanshinone, an animal experiment was carried out as follows.
(§1) For this purpose, 10-week-old ob/ob male mice (Jackson Lab) as an obese mouse model of type 2 diabetes were purchased from Orient Co., Ltd., Korea and were allowed to acclimate to a new environment of the breeding room for 10 days prior to experiments. Animals were fed a solid feed (P5053, Labdiet) as a laboratory animal chow. The ob/ob male mice were housed and allowed to acclimate to a new environment for 10 days, in a breeding room maintained at a temperature of 22±2° C., humidity of 55±5%, and a 12-h light/dark (L/D) cycle (light from 8:00 am. to 8:00 p.m.). According to a randomized blocks design, the thus-acclimated animals were randomly divided into four groups, each consisting of 7 animals: a control group with no administration of any drug sample, a group with administration of a vehicle (sodium lauryl sulfate) only, a group with administration of 15,16-dihydrotanshinone (before microparticulation, 400 mg/kg) plus sodium lauryl sulfate, and a group with administration of micronized particles of 15,16-dihydrotanshinone (400 mg/kg) plus sodium lauryl sulfate. Each group of animals was given drug samples in admixture with the feed for 20 days. […]

[2] = Body weight change in DIO C57BL/6 mice, effect of phosphatidylcholine on micronized cryptotanshinone (Example 8); conditions: DIO C57BL/6 male mice; cryptotanshinone 150 mg/kg PO for 40 days
Description: In order to ascertain whether phosphatidylcholine (PC) which is a phospholipid maintains a particle size of micronized particles of cryptotanshinone, prevents the particle agglomeration or aggregation, and enhances therapeutic efficacy of cryptotanshinone, an animal experiment was carried out as follows.
For this purpose, 5-week-old C57BL/6 male mice were purchased from Orient Co., Ltd., Korea and were allowed to acclimate to a new environment of the breeding room for 10 days prior to experiments. A DIO (diet-induced obesity) mouse model was established by supplying to animals high-fat diet for 8 weeks. 13-week-old male mice weighing 40 g were used in experiments. Animals were fed a high-fat feed (45 kcal % fat) (D12451, Research Diets Inc., New Brunswick, N.J.) as a laboratory animal chow. The DIO mice were housed and allowed to acclimate to a new environment for 10 days, in a breeding room maintained at a temperature of 22±2° C., humidity of 55±5%, and a 12-h light/dark (L/D) cycle (light from 8:00 a.m. to 8:00 p.m.). […]

[3] = Body weight change in ob/ob mice, effect of calcium silicate on micronized cryptotanshinone (Example 9); conditions: ob/ob male mice; cryptotanshinone 400 mg/kg in admixture with the feed for 20 days
Description: In order to ascertain whether calcium silicate maintains a particle size of micronized particles of cryptotanshinone, prevents the particle agglomeration or aggregation, and enhances therapeutic efficacy of cryptotanshinone, an animal experiment was carried out as follows.
as §1, with “10-week-old” for “For this purpose, 10-week-old”, “(calcium silicate)” for “(sodium lauryl sulfate)”, “cryptotanshinone (400 mg/kg),” for “15,16-dihydrotanshinone (before microparticulation, 400 mg/kg) plus sodium lauryl sulfate,”, “cryptotanshinone” for “micronized particles of 15,16-dihydrotanshinone”, “calcium silicate.” for “sodium lauryl sulfate.”

[4] = Body weight change in ob/ob mice, effect of chitosan on micronized cryptotanshinone (Example 10); conditions: ob/ob male mice; cryptotanshinone 400 mg/kg in admixture with the feed for 20 days
Description: In order to ascertain whether chitosan maintains a particle size of micronized particles of cryptotanshinone, prevents the particle agglomeration or aggregation, and enhances therapeutic efficacy of cryptotanshinone, an animal experiment was carried out as follows.
(§2) 10-week-old ob/ob male mice (Jackson Lab) as an obese mouse model of type 2 diabetes were purchased from Orient Co., Ltd., Korea and were allowed to acclimate to a new environment of the breeding room for 10 days prior to experiments. Animals were fed a solid feed (P5053, Labdiet) as a laboratory animal chow. The ob/ob male mice were housed and allowed to acclimate to a new environment for 10 days, in a breeding mom maintained at a temperature of 22±2° C., humidity of 55±5%, and a 12-h light/dark (L/D) cycle (light from 8:00 am. to 8:00 p.m.). According to a randomized blocks design, the thus-acclimated animals were randomly divided into four groups, each consisting of 7 animals: a control group with no administration of any drug sample, a group with administration of a vehicle (chitosan) only, a group with administration of cryptotanshinone (400 mg/kg), and a group with administration of cryptotanshinone (400 mg/kg) plus chitosan. Each group of animals was given drug samples in admixture with the feed for 20 days. All animals were allowed ad libitum access to water and standard laboratory chow throughout the study period.

[5] = Body weight change in ob/ob mice, effect of sucrose palmitate on micronized cryptotanshinone (Example 11); conditions: cryptotanshinone 400 mg/kg in admixture with the feed for 20 days
Description: In order to ascertain whether sucrose palmitate which is an emulsifier maintains a particle size of micronized particles of cryptotanshinone, prevents the particle agglomeration or aggregation, and enhances therapeutic efficacy of cryptotanshinone, an animal experiment was carried out as follows.
as §2, with “room” for “mom”, “(sucrose palmitate)” for “(chitosan)”, “sucrose palmitate.” for “chitosan.”, “All animals were allowed ad libitum access to water and standard laboratory chow throughout the study period.” left out

[6] = Body weight change in ob/ob mice, intestine-targeted formulation of micronized β-lapachone (Example 14); conditions: ob/ob male mice; 200 mg/kg in terms of β-lapachone content PO once a day
Description: In order to confirm therapeutic efficacy of β-lapachone {7,8-dihydro-2,2-dimethyl-2H-naphtho(2,3-b)dihydropyran-7,8-dione} when micronized particles of β-lapachone was prepared into a formulation of an intestine-targeted drug delivery system, an animal experiment was carried out as follows.
0.2 g of sodium lauryl sulfate (SLS) and 10 g of β-lapachone were mixed and ground. To the resulting mixture were added approximately an equal amount of a water-soluble polymer (hydroxypropyl methylcellulose) relative to β-lapachone, and vehicles such as Croscarmellose sodium and light anhydrous silicic acid, followed by spray drying. Then, the spray-dried product was added to an ethanol solution containing about 20% by weight of Eudragit S-100 as a pH-sensitive polymer and about 2% by weight of PEG #6,000 as a plasticizer, and the mixture was then spray-dried to prepare intestine-targeted formulations.
In order to confirm the efficacy of each formulation, 200 mg/kg of the formulation in terms of β-lapachone content was administered to ob/ob mice once a day and changes in the body weight (BW) of animals were examined.
For this purpose, 10-week-old ob/ob male mice (Jackson Lab) as an obese mouse model of type 2 diabetes were purchased from Orient Co., Ltd., Korea and were allowed to acclimate to a new environment of the breeding room for 10 days prior to experiments. […]

[7] = Body weight change in ob/ob mice, micronized particles of tanshinone IIA (Example 13); conditions: ob/ob male mice; 400 mg/kg plus sodium lauryl sulfate in admixture with the feed for 20 days
Description: In order to confirm therapeutic efficacy of micronized particles of tanshinone IIA, an animal experiment was carried out as follows.
For this purpose, 10-week-old ob/ob male mice (Jackson Lab) as an obese mouse model of type 2 diabetes were purchased from Orient Co., Ltd., Korea and were allowed to acclimate to a new environment of the breeding room for 10 days prior to experiments. Animals were fed a solid feed (P5053, Labdiet) as a laboratory animal chow. The ob/ob male mice were housed and allowed to acclimate to a new environment for 10 days, in a breeding room maintained at a temperature of 22±2° C., humidity of 55±5%, and a 12-h light/dark (L/D) cycle (light from 8:00 am. to 8:00 p.m.). According to a randomized blocks design, the thus-acclimated animals were randomly divided into four groups, each consisting of 7 animals: a control group with no administration of any drug sample, a group with administration of a vehicle (sodium lauryl sulfate) only, a group with administration of tanshinone IIA (before microparticulation, 400 mg/kg) plus sodium lauryl sulfate, and a group with administration of micronized particles of tanshinone IIA (400 mg/kg) plus sodium lauryl sulfate. Each group of animals was given drug samples in admixture with the feed for 20 days. All animals were allowed ad libitum access to water and standard laboratory chow throughout the study period.

SMILES: Cc1cccc2c3c(ccc12)C1=C(C(=O)C3=O)C(C)CO1 (stereo not shown) [15,16-dihydrotanshinone]
- Final BW [1]: 55.4 ± 3.1 g

SMILES: C[C@H]1COC2=C1C(=O)C(=O)c1c2ccc2c1CCCC2(C)C [Cryptotanshinone alone, cryptotanshinone]
- Final BW [2]: 40.2 ± 1.3 g
- Final BW [3]: 53.2 ± 1.3 g
- Final BW [4]: 53.2 ± 1.3 g
- Final BW [5]: 53.2 ± 1.3 g

SMILES: CC1(C)CCC2=C(O1)c1ccccc1C(=O)C2=O [Simply finely-divided powder, β-lapachone]
- Final BW [6]: 57.5 ± 1.3 g

SMILES: Cc1coc2c1C(=O)C(=O)c1c-2ccc2c1CCCC2(C)C [Tanshinone IIA before microparticulation, tanshinone IIA]
- Final BW [7]: 58.4 ± 3.3 g
